Like-named read-outs stand apart in the source and are kept apart here. *1 amine or outer side, *2 acyl side, *3 side chain or, on linkers, in order; H or OH if unused. Where a SMILES comes first, the peptide text is derived from it. Side-chain parts run from the residue outwards. [ ]: non-standard residue; d: D form. The star is where a group is joined. C20 diacid = O=C(O)CCCCCCCCCCCCCCCCCCC(=O)*; γGlu = O=C(O)[C@H](CCC(=O)[*:2])N[*:1]; εLys = N[C@@H](CCCCN[*:1])C(=O)[*:2]; AEEA = NCCOCCOCC(=O)O; Aib = CC(C)(N)C(=O)O
Assays:
human GIP receptor = target: T1, human GIP receptor (Homo sapiens, UniProt P48546); experiment: In vitro functional potency (CRE luciferase; whole cells), human GIPR; assay type: cell-based; settings: BHK CRE luc2P hGIPR whole cells; Table 2; read-out: hGIPR CRE Luc EC50
T1 construct: expressed in transfected cells; host or cells: BHK cells (parent line BHKTS13) containing CRE luciferase
T1 sequence (P48546 22-466): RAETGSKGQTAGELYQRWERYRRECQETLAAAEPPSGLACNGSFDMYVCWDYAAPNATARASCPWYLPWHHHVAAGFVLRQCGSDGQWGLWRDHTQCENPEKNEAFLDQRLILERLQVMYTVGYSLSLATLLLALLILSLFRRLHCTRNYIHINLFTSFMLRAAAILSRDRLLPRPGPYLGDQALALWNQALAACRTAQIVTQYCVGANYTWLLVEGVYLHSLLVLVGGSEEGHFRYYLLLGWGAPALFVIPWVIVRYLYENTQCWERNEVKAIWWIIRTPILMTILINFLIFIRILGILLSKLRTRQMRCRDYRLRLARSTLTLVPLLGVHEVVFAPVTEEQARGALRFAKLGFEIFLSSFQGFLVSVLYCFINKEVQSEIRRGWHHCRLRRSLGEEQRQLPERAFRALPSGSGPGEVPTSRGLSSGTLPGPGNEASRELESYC

[1] = Pharmacokinetic study in minipigs, i.v. administration; set-up: species or system Göttingen minipigs; settings: female, Göttingen, minipig, in vivo, iv
Procedure: The purpose of this example is to determine the half-life in vivo of the triple agonists as described herein after i.v. administration to minipigs, i.e. the prolongation of their time in the body and thereby their time of action. This is done in a pharmacokinetic (PK) study, where the terminal half-life of the triple agonist in question is determined. By terminal half-life is generally meant the period of time it takes to halve a certain plasma concentration, measured after the initial distribution phase.
Female Göttingen minipigs were obtained from Ellegaard Göttingen Minipigs (Dalmose, Denmark) approximately 7-14 months of age and weighing from approximately 16-35 kg were used in the studies. The minipigs were housed individually and fed restrictedly once daily with SDS minipig diet (Special Diets Services, Essex, UK).
After at 3 weeks of acclimatisation two permanent central venous catheters were implanted in vena cava caudalis in each animal. The animals were allowed 1 week recovery after the surgery, and were then used for repeated pharmacokinetic studies with a suitable wash-out period between successive dosings.
The animals were fasted for approximately 18 hours before dosing and from 0 to 4 hours after dosing, but had adlibitum access to water during the whole period.
Intravenous injections (the volume corresponding to usually 1.5-2 nmol/kg, for example 0.1 mL/kg) of the triple agonists were given through one catheter, and blood was sampled at predefined time points for up to 14 days post dosing (preferably through the other catheter). Blood samples (for example 0.8 mL) were collected in 8 mM EDTA buffer and then centrifuged at 4° C. and 1942 g for 10 minutes.
Plasma was pipetted into Micronic tubes on dry ice and kept at −20° C. until analysed for plasma concentration of the triple agonists using ELISA, or a similar antibody-based assay, or LCMS. Individual plasma concentration-time profiles were analysed by a non-compartmental model in Phoenix WinNonLin ver. 6.4. (Pharsight Inc., Mountain View, CA, USA), and the resulting terminal half-lives (harmonic mean) determined.

human GLP-1 receptor = target: T2, human GLP-1 receptor (Homo sapiens, UniProt P43220); experiment: In vitro functional potency (CRE luciferase; whole cells), human GLP-1R; assay type: cell-based
T2 construct: expressed in transfected cells; host or cells: BHK cells (parent line BHKTS13) containing CRE luciferase

[2] = Pharmacodynamic study in DIO mice, daily s.c. dosing over 13 days (body weight, food intake); assay type: in vivo, C57BL/6J male mice; settings: for Absolute BW (grams) Day 0: Day 0 (baseline); for Cumulative food intake (grams) Day 13: mean ± SEM, n = 2
Procedure: The purpose of this example is to assess the in vivo effect of selected triple agonists on pharmacodynamic parameters in diet-induced obese (DIO) mice. The animals were treated once daily via subcutaneous injection with a liquid formulation of the triple agonist to be tested to assess effects on body weight, foot intake, and glucose tolerance.
C57BL/6J male mice were purchased from Jackson Laboratories at approximately 8 weeks of age. Mice were group housed and fed a high-fat, high-sugar diet from Research Diets (D12331). Mice were maintained on this diet for 12 weeks prior to initializing the pharmacology studies. Mice exceeding a measured body weight of 50 grams were considered diet-induced obese (DIO) and included in pharmacology studies. Mice were exposed to a controlled 12 h:12 h light:dark cycle at ambient room temperature (22° C.) with ab libitum access to food and water. Studies were approved by and performed according to the guidelines of the Institutional Animal Care and Use Committee of the University of Cincinnati.
All compounds in the study were formulated in the following buffer: 50 mM phosphate; 70 mM sodium chloride; 0.05% Tween-80, pH 7.4. Dosing solutions were formulated in glass vials and stored at 2-8° C. Dosing solutions were brought to room temperature before dosing and returned to 2-8° C. after dosing.
The animals were grouped to receive treatment as follows: Vehicle or GLP-1/GIP/Gcg receptor triple agonists as described herein, where vehicle is 50 mM phosphate, 70 mM sodium chloride; 0.05% (v/v) Tween-80, pH 7.4. The test compounds were dissolved in the vehicle, to stock concentrations of […], then diluted 50- to 200-fold in the vehicle to achieve the desired dosing solution concentrations. Animals were dosed subcutaneously once daily in the morning for each day of treatment with dosing solution at a volume of 2-5 μL per gram of body weight as necessary to achieve the desired dose (e.g. 0.3 nmol/kg, 1.0 nmol/kg, or 3.0 nmol/kg).
Body weight (BW) and food intake were measured immediately prior to dosing each day. The percent change in body was calculated individually for each mouse based on initial body weight prior to the first injection.

[3] = BHK CRE luc2P hGLP-1R whole cells, Table 2, read-out: hGLP-1R CRE Luc EC50
[4] = daily s.c. dosing over 13 days, compared to vehicle

T2 sequence (P43220 24-463): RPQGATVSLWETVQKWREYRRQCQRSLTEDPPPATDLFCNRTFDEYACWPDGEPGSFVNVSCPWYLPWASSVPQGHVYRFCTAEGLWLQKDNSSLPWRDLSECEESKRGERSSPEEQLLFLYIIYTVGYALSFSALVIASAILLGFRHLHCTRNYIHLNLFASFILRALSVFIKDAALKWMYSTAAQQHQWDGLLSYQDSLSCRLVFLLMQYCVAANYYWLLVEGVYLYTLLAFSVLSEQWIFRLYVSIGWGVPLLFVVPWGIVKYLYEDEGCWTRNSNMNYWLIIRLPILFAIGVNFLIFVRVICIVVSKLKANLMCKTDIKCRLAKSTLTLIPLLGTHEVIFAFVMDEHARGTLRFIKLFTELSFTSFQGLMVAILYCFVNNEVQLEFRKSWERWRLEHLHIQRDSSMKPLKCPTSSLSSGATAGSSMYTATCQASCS

CC[C@H](C)[C@H](NC(=O)[C@H](CO)NC(=O)[C@H](Cc1ccc(O)cc1)NC(=O)[C@H](CC(=O)O)NC(=O)[C@H](CO)NC(=O)[C@@H](NC(=O)[C@H](Cc1ccccc1)NC(=O)[C@@H](NC(=O)CNC(=O)[C@H](Cc1c[nH]cn1)NC(=O)C(C)(C)NC(=O)[C@@H](N)Cc1ccc(O)cc1)[C@@H](C)O)[C@@H](C)O)C(=O)N[C@@H](Cc1ccc(O)cc1)C(=O)N[C@@H](CC(C)C)C(=O)N[C@@H](CCC(=O)O)C(=O)N[C@@H](CCCCNC(=O)[C@@H](N)CCCCNC(=O)[C@@H](N)CCCCNC(=O)CC[C@H](NC(=O)CCCCCCCCCCCCCCCCCCC(=O)O)C(=O)O)C(=O)N[C@@H](CCC(N)=O)C(=O)N[C@@H](C)C(=O)N[C@@H](C)C(=O)NC(C)(C)C(=O)N[C@@H](CCC(=O)O)C(=O)N[C@@H](Cc1ccccc1)C(=O)N[C@H](C(=O)N[C@@H](CCC(N)=O)C(=O)N[C@@H](Cc1c[nH]c2ccccc12)C(=O)N[C@@H](CC(C)C)C(=O)N[C@@H](CC(C)C)C(=O)N[C@@H](CCC(=O)O)C(=O)NCC(=O)NCC(=O)N1CCC[C@H]1C(=O)N[C@@H](CO)C(=O)N[C@@H](CO)C(=O)NCC(=O)N[C@@H](C)C(=O)N1CCC[C@H]1C(=O)N1CCC[C@H]1C(=O)N1CCC[C@H]1C(=O)N[C@@H](CO)C(N)=O)C(C)C [Compound No. 18] (H-Y[Aib]HGTFTSDYSIYLEK([εLys-εLys-γGlu-C20 diacid])QAA[Aib]EFVQWLLEGGPSSGAPPPS-NH2)
EC50 (human GIP receptor): 7.1 pM

CC(C)C[C@H](NC(=O)[C@H](CC(C)C)NC(=O)[C@H](Cc1c[nH]c2ccccc12)NC(=O)[C@H](CCC(N)=O)NC(=O)[C@@H](NC(=O)[C@H](Cc1ccccc1)NC(=O)[C@H](CCC(=O)O)NC(=O)C(C)(C)NC(=O)[C@H](C)NC(=O)[C@H](C)NC(=O)[C@H](CCCCN)NC(=O)[C@H](CCCCNC(=O)[C@@H](N)CCCCNC(=O)[C@@H](N)CCCCNC(=O)CC[C@H](NC(=O)CCCCCCCCCCCCCCCCCCC(=O)O)C(=O)O)NC(=O)[C@H](CCC(=O)O)NC(=O)[C@H](CC(C)C)NC(=O)[C@H](Cc1ccc(O)cc1)NC(=O)[C@H](Cc1ccc(O)cc1)NC(=O)[C@H](CO)NC(=O)[C@H](Cc1ccc(O)cc1)NC(=O)[C@H](CC(=O)O)NC(=O)[C@H](CO)NC(=O)[C@@H](NC(=O)[C@H](Cc1ccccc1)NC(=O)[C@@H](NC(=O)CNC(=O)[C@H](Cc1c[nH]cn1)NC(=O)C(C)(C)NC(=O)[C@@H](N)Cc1c[nH]cn1)[C@@H](C)O)[C@@H](C)O)C(C)C)C(=O)N[C@@H](CCC(=O)O)C(=O)NCC(=O)NCC(=O)N1CCC[C@H]1C(=O)N[C@@H](CO)C(=O)N[C@@H](CO)C(=O)NCC(=O)N[C@@H](C)C(=O)N1CCC[C@H]1C(=O)N1CCC[C@H]1C(=O)N1CCC[C@H]1C(=O)N[C@@H](CO)C(N)=O [Compound No. 31] (H-H[Aib]HGTFTSDYSYYLEK([εLys-εLys-γGlu-C20 diacid])KAA[Aib]EFVQWLLEGGPSSGAPPPS-NH2; N-terminus assumed)
half-life [1]: 55 h | EC50 (human GLP-1 receptor; [3]): 3 pM

CC[C@H](C)[C@H](NC(=O)[C@H](CO)NC(=O)[C@H](Cc1ccc(O)cc1)NC(=O)[C@H](CC(=O)O)NC(=O)[C@H](CO)NC(=O)[C@@H](NC(=O)[C@H](Cc1ccccc1)NC(=O)[C@@H](NC(=O)CNC(=O)[C@H](Cc1c[nH]cn1)NC(=O)C(C)(C)NC(=O)[C@@H](N)Cc1c[nH]cn1)[C@@H](C)O)[C@@H](C)O)C(=O)N[C@@H](Cc1ccc(O)cc1)C(=O)N[C@@H](CC(C)C)C(=O)N[C@@H](CCC(=O)O)C(=O)N[C@@H](CCCCNC(=O)COCCOCCNC(=O)COCCOCCNC(=O)CC[C@H](NC(=O)CCCCCCCCCCCCCCCCCCC(=O)O)C(=O)O)C(=O)N[C@@H](CCCCN)C(=O)N[C@@H](Cc1ccc(O)cc1)C(=O)N[C@@H](C)C(=O)NC(C)(C)C(=O)N[C@@H](CCC(=O)O)C(=O)N[C@@H](Cc1ccccc1)C(=O)N[C@H](C(=O)N[C@@H](CCC(N)=O)C(=O)N[C@@H](Cc1c[nH]c2ccccc12)C(=O)N[C@@H](CC(C)C)C(=O)N[C@@H](CC(C)C)C(=O)N[C@@H](CCC(=O)O)C(=O)NCC(=O)NCC(=O)N1CCC[C@H]1C(=O)N[C@@H](CO)C(=O)N[C@@H](CO)C(=O)NCC(=O)N[C@@H](C)C(=O)N1CCC[C@H]1C(=O)N1CCC[C@H]1C(=O)N1CCC[C@H]1C(=O)N[C@@H](CO)C(N)=O)C(C)C [Compound No. 39] (H-H[Aib]HGTFTSDYSIYLEK([AEEA-AEEA-γGlu-C20 diacid])KYA[Aib]EFVQWLLEGGPSSGAPPPS-NH2)
half-life [1]: 66 h | EC50 (human GLP-1 receptor; [3]): 4.4 pM

CC[C@H](C)[C@H](NC(=O)[C@H](CO)NC(=O)[C@H](Cc1ccc(O)cc1)NC(=O)[C@H](CC(=O)O)NC(=O)[C@H](CO)NC(=O)[C@@H](NC(=O)[C@H](Cc1ccccc1)NC(=O)[C@@H](NC(=O)CNC(=O)[C@H](Cc1c[nH]cn1)NC(=O)C(C)(C)NC(=O)[C@@H](N)Cc1c[nH]cn1)[C@@H](C)O)[C@@H](C)O)C(=O)N[C@@H](CC(C)C)C(=O)N[C@@H](CC(C)C)C(=O)N[C@@H](CCC(=O)O)C(=O)N[C@@H](CCCCNC(=O)[C@@H](N)CCCCNC(=O)[C@@H](N)CCCCNC(=O)CC[C@H](NC(=O)CCCCCCCCCCCCCCCCCCC(=O)O)C(=O)O)C(=O)N[C@@H](CCC(N)=O)C(=O)N[C@@H](C)C(=O)N[C@@H](C)C(=O)NC(C)(C)C(=O)N[C@@H](CCC(=O)O)C(=O)N[C@@H](Cc1ccccc1)C(=O)N[C@H](C(=O)N[C@@H](CCC(N)=O)C(=O)N[C@@H](Cc1c[nH]c2ccccc12)C(=O)N[C@@H](CC(C)C)C(=O)N[C@@H](CC(C)C)C(=O)N[C@@H](CCC(=O)O)C(=O)NCC(=O)NCC(=O)N1CCC[C@H]1C(=O)N[C@@H](CO)C(=O)N[C@@H](CO)C(=O)NCC(=O)N[C@@H](C)C(=O)N1CCC[C@H]1C(=O)N1CCC[C@H]1C(=O)N1CCC[C@H]1C(=O)N[C@@H](CO)C(N)=O)C(C)C [Compound No. 43] (H-H[Aib]HGTFTSDYSILLEK([εLys-εLys-γGlu-C20 diacid])QAA[Aib]EFVQWLLEGGPSSGAPPPS-NH2)
Absolute BW (grams) Day 0 ([2]; 1.0 nmol/kg group): 60.4 ± 1.0 grams | Absolute BW (grams) Day 13 ([2]; 1.0 nmol/kg s.c. once daily): 48.7 ± 1.4 grams | Change in BW (%) Day 13 ([2]; 1.0 nmol/kg s.c. once daily): −19.4 ± 1.5% | Cumulative food intake (grams) Day 13 ([2]; 1.0 nmol/kg s.c. once daily): 21.1 ± 3.3 grams | Absolute BW (grams) Day 0 ([2]; 3.0 nmol/kg group): 60.1 ± 1.9 grams | Absolute BW (grams) Day 13 ([2]; 3.0 nmol/kg s.c. once daily): 36.3 ± 1.0 grams | Change in BW (%) Day 13 ([2]; 3.0 nmol/kg s.c. once daily): −39.5 ± 1.3% | Cumulative food intake (grams) Day 13 ([2]; 3.0 nmol/kg s.c. once daily): 11.5 ± 2.4 grams | reduction in body weight (in words) [2, 4]: superior reduction | reduction in food intake (in words) [2, 4]: superior reduction | half-life ([1]; minipigs, i.v. administration, harmonic mean, read-out: Terminal half-life t1/2 (converted)): 71 h | EC50 (human GLP-1 receptor): 3 pM
